# Laboratory results reported in US7554012B2, “Plants and plant cells exhibiting resistance to AMPA, and methods for making the same” (priority 1998, dated 2009).
# Values joined by “and” are separate entries in the source; they are usually repeats but may differ in a detail not shown here. Equal values may be shown once.
# Experiments:
# E. coli JM101 = test: Cell growth in MOPS medium with AMPA; format: cell-based; design: key: — indicates no measurable growth; conditions: 0.2 mM AMPA, growth period 54 hrs
# Method: (§1) The phn operon is induced when E. coli is grown in media lacking or limited in a phosphate source. Therefore, E. coli GB993 was compared to the parental JM101 strain when grown in MOPS minimal media. GB993 and its mpu− parent strain, JM101, were grown under identical conditions, varying only the amount of phosphate available or supplemented with AMPA. 50 ml cultures were grown in duplicate in 250 ml sidearm-Erlenmeyer flasks with continuous shaking at 37° C. in MOPS medium (5 mls of 10×MOPS salts, 0.5 ml 1 mg/ml thiamin, 0.5 ml 20% glucose, to 50 mls with dH2O) containing 0.1 or 5 mM phosphate, or 0.1 mM phosphate supplemented with approximately 0.2 mM AMPA, pH 7.0. The cultures were generally grown to about 220 Klett units and the cells were pelleted by centrifugation, resuspended in 1.5 mls of 10 mM Tris/1 mM DTT, and lysed with two passes through a French press at […]. Lysates were centrifuged to remove debris and the supernatant passed through a G-50 column equilibrated with 50 mM Tris pH 7.0.
# E. coli GB993 = test: Cell growth in MOPS medium with AMPA; format: cell-based; conditions: 0.2 mM AMPA, growth period 54 hrs
# Method: as §1
# [1] = test system: R2 glyphosate tolerant wheat plants; test: [^14C]-glyphosate metabolism in wheat plants; format: in vivo, Triticum aestivum cv Bobwhite
# Method: R2 seed was germinated from a number of different glyphosate tolerant lines to produce R2 glyphosate tolerant plants to which [^14C]-glyphosate was applied as described above. Plant leaf and stem tissues were harvested at 48 hours after glyphosate application, and water soluble compounds were extracted as described above and analyzed by HPLC as in example 2 for the presence of [^14C]-glyphosate metabolites. The total area under the [^14C] isotope labeled peaks eluting from the column was summed to provide a baseline of 100% [^14C]-compound identification for each sample analyzed.
# [2] = [^14C]-glyphosate in growth medium exposed to light
# Method: Growth medium to which [^14C]-glyphosate was added was treated to the same conditions as wheat plants, ie, the medium was exposed to incident light intensities which plants received.
# [3] = EPSPS + PhnO + GOX, Plant Line 25462
# [4] = EPSPS + PhnO + GOX, Plant Line 26281
# [5] = EPSPS + PhnO + GOX, Plant Line 28598
# [6] = non-recombinant Bobwhite plants
compound,measurement,setting,value
"NCP(=O)(O)O [AMPA, N-aminomethyl phosphonic acid]",Harvest Density,E. coli JM101,—
same,Harvest Density,E. coli GB993,185 Klett Units
N-phosphono-methyl-glycine [Glyphosate],"Acetyl-[^14C]-AMPA, of summed [^14C] peaks",[1]; [3],0%
same,"[^14C]-Glyphosate, of summed [^14C] peaks",[1]; [3],48% and 44% and 54%
same,"Acetyl-[^14C]-AMPA, of summed [^14C] peaks",[1]; [4],17% and 13% and 7%
same,"[^14C]-AMPA, of summed [^14C] peaks",[1]; [4],14% and 11% and 7%
same,"[^14C]-Glyphosate, of summed [^14C] peaks",[1]; [4],48% and 64% and 38%
same,"[^14C]-Glyphosate, of summed [^14C] peaks","[1]; EPSPS + PhnO + GOX, Plant Line 27249",6% and 14% and 5%
same,"Acetyl-[^14C]-AMPA, of summed [^14C] peaks",[1]; [5],5%
same,"[^14C]-AMPA, of summed [^14C] peaks",[1]; [5],7%
same,"[^14C]-Glyphosate, of summed [^14C] peaks",[1]; [5],20% and 25%
same,"[^14C]-Other, of summed [^14C] peaks",[1]; [5],68% and 63%
same,"Acetyl-[^14C]-AMPA, of summed [^14C] peaks","[1]; EPSPS, Plant Line 24756",1% and 0%
same,"[^14C]-AMPA, of summed [^14C] peaks","[1]; EPSPS, Plant Line 24756",25% and 46%
same,"[^14C]-Glyphosate, of summed [^14C] peaks","[1]; EPSPS, Plant Line 24756, 48 hours after application",43% and 53%
same,"Acetyl-[^14C]-AMPA, of summed [^14C] peaks","[1]; EPSPS, Plant Line 25397",0% and 1.2%
same,"[^14C]-AMPA, of summed [^14C] peaks","[1]; EPSPS, Plant Line 25397",38% and 19% and 20%
same,"[^14C]-Glyphosate, of summed [^14C] peaks","[1]; EPSPS, Plant Line 25397",61% and 37% and 64%
same,"Acetyl-[^14C]-AMPA, of summed [^14C] peaks",[1]; [6],0%
same,"[^14C]-AMPA, of summed [^14C] peaks",[1]; [6],26% and 15% and 24%
same,"Acetyl-[^14C]-AMPA, of summed [^14C] peaks",[2],2% and 0% and 0.2%
same,"[^14C]-Glyphosate, of summed [^14C] peaks",[2]; same light exposure as plants,48% and 87% and 60%
